Results as given in patent US10821115B2, “Compounds that inhibit Mcl-1 protein” (priority 2017, dated 2020).
pIC50: −log10 of the molar value. Read-outs that look alike come from different tables or passages of the source.

Columns and labels:
[1] = molecular target: recombinant human Mcl-1 (residues 171-327) / Bim interaction (Homo sapiens (Human), UniProt Q07820); assay: biochemical; type: binding; settings: read-out: Mcl-1 HTRF IC50
[2] = tested on: human multiple myeloma cell line, OPM-2; assay: Cell viability assay (OPM-2 10 FBS), CellTiter-Glo; type: cell-based
In short: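 Serially diluted test compounds are incubated 16 h with cells (3000/well) in RPMI 1640 supplemented with 10% FBS. Viability is then measured by luminescence and IC50 calculated by 4-parameter logistic fit.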

[3] = 0.1 nM Mcl-1(171-327), 0.05 nM biotin-Bim (51-76)
[4] = Homo sapiens, OPM-2, 16 h, read-out: OPM-2 10% FBS IC50 IP, OPM-2 cells, 10% FBS, 16 h incubation
[5] = read-out: OPM-2 10% FBS IC50 IP, OPM-2 cells, 10% FBS, 16 h incubation
[6] = TR-FRET, Mcl-1(171-327) / biotin-Bim (51-76)
[7] = Homo sapiens, OPM-2, 16 h, read-out: OPM-2 10% FBS IC50 IP, OPM-2 cells, 10% FBS, 16 h, CellTiter-Glo
[8] = read-out: OPM-2 10% FBS IC50 IP, OPM-2 cells, 10% FBS, 16 h, CellTiter-Glo

recombinant human Mcl-1 (residues 171-327) / Bim interaction, sequence (Q07820 171-327): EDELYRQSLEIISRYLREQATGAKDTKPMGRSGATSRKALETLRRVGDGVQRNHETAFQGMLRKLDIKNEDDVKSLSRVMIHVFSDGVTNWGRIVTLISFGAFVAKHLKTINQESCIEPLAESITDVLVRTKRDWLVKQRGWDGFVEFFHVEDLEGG

Row | Compound | pIC50 [1, 6] | pIC50 [2, 7] | other results
1 | CO[C@@]1(CN2CCN(c3cnccn3)CC2)/C=C/C[C@H](C)[C@@H](C)S(=O)(=O)NC(=O)c2ccc3c(c2)N(C[C@@H]2CC[C@H]21)C[C@@]1(CCCc2cc(Cl)ccc21)CO3 [Example 257, (1S,3′R,6′R,7′S,8′E,11′S,12′R)-6-chloro-7′-methoxy-11′,12′-dimethyl-7′-((4-(2-pyrazinyl)-1-piperazinyl)methyl)-3,4-dihydro-2H,15′H-spiro[naphthalene-1,22′-[20]oxa[13]thia[1,14]diazatetracyclo [14.7.2.0~3,6~.0~19,24~]pentacosa[8,16,18,24]tetraen]-15′-one 13′,13′-dioxide] |  |  | pIC50 [1, 3]: 9.39; pIC50 [2, 4]: 6.01
2 | CO[C@@]1(CN2CCN3CCN(S(C)(=O)=O)C[C@@H]3C2)/C=C/C[C@H](C)[C@@H](C)S(=O)(=O)NC(=O)c2ccc3c(c2)N(C[C@@H]2CC[C@H]21)C[C@@]1(CCCc2cc(Cl)ccc21)CO3 (single isomer, unassigned) [Example 244] |  |  | pIC50 [1, 3]: 8.78; pIC50 [2, 5]: 6.20
3 | CCOCCN1CCN(C[C@]2(OC)/C=C/C[C@H](C)[C@@H](C)S(=O)(=O)NC(=O)c3ccc4c(c3)N(C[C@@H]3CC[C@H]32)C[C@@]2(CCCc3cc(Cl)ccc32)CO4)CC1 [Example 303, (1S,3′R,6′R,7′S,8′E,11′S,12′R)-6-chloro-7′-((4-(2-ethoxyethyl)-1-piperazinyl)methyl)-7′-methoxy-11′,12′-dimethyl-3,4-dihydro-2H,15′H-spiro[naphthalene-1,22′-[20]oxa[13]thia[1,14]diazatetracyclo [14.7.2.0~3,6~.0~19,24~]pentacosa[8,16,18,24]tetraen]-15′-one 13′,13′-dioxide] |  |  | pIC50 [1, 3]: 9.82; pIC50 [2, 4]: 7.00
4 | CC[C@@H]1CCCC[C@](O)(COC)[C@@H]2CC[C@H]2CN2C[C@@]3(CCCc4cc(Cl)ccc43)COc3ccc(cc32)C(=O)NS1(=O)=O [Example 100040, (1S,3′R,6′R,7′R,12′R)-6-chloro-12′-ethyl-7′-hydroxy-7′-(methoxymethyl)-3,4-dihydro-2H,15′H-spiro[naphthalene-1,22′-[20]oxa[13]thia[1,14]diazatetracyclo [14.7.2.0~3,6~.0~19,24~]pentacosa[16,18,24]trien]-15′-one 13′,13′-dioxide] | 8.56 | 5.31 | 
5 | C[C@@H]1[C@@H](C)C/C=C/[C@@](O)(c2ccncc2)[C@@H]2CC[C@H]2CN2C[C@@]3(CCCc4cc(Cl)ccc43)COc3ccc(cc32)C(=O)NS1(=O)=O (single isomer, unassigned) [Example 100392] | 9.95 | 6.89 | 
6 | C[C@@H]1[C@@H](C)C/C=C/[C@@](O)(Cc2ccncn2)[C@@H]2CC[C@H]2CN2C[C@@]3(CCCc4cc(Cl)ccc43)COc3ccc(cc32)C(=O)NS1(=O)=O [Example 100151, (1S,3′R,6′R,7′S,8′E,11′S,12′R)-6-chloro-7′-hydroxy-11′,12′-dimethyl-7′-(4-pyrimidinylmethyl)-3,4-dihydro-2H,15′H-spiro[naphthalene-1,22′-[20]oxa[13]thia[1,14]diazatetracyclo [14.7.2.0~3,6~.0~19,24~]pentacosa[8,16,18,24]tetraen]-15′-one 13′,13′-dioxide] | 9.92 |  | pIC50 [2, 8]: 7.15
7 | C[C@@H]1[C@@H](C)C/C=C/[C@](O)(Cc2ccnc(C#N)c2)[C@@H]2CC[C@H]2CN2C[C@@]3(CCCc4cc(Cl)ccc43)COc3ccc(cc32)C(=O)NS1(=O)=O [Example 100188, 4-(((1S,3′R,6′R,7′R,8′E,11′S,12′R)-6-chloro-7′-hydroxy-11′,12′-dimethyl-13′,13′-dioxido-15′-oxo-3,4-dihydro-2H-spiro[naphthalene-1,22′-[20]oxa[13]thia[1,14]diazatetracyclo [14.7.2.0~3,6~.0~19,24~]pentacosa[8,16,18,24]tetraen]-7′-yl)methyl)-2-pyridinecarbonitrile] | 9.06 |  | pIC50 [2, 8]: 6.13
8 | CO[C@@]1(C#CCCO)/C=C/C[C@H](C)[C@@H](C)S(=O)(=O)NC(=O)c2ccc3c(c2)N(C[C@@H]2CC[C@H]21)C[C@@]1(CCCc2cc(Cl)ccc21)CO3 [Example 100427, (1S,3′R,6′R,7′S,8′E,11′S,12′R)-6-chloro-7′-(4-hydroxy-1-butyn-1-yl)-7′-methoxy-11′,12′-dimethyl-3,4-dihydro-2H,15′H-spiro[naphthalene-1,22′-[20]oxa[13]thia[1,14]diazatetracyclo [14.7.2.0~3,6~.0~19,24~]pentacosa[8,16,18,24]tetraen]-15′-one 13′,13′-dioxide] | 9.68 | 6.47 | 
9 | C[C@@H]1[C@@H](C)C/C=C/[C@](O)(c2nccn2C)[C@@H]2CC[C@H]2CN2C[C@@]3(CCCc4cc(Cl)ccc43)COc3ccc(cc32)C(=O)NS1(=O)=O [Example 100198, (1S,3′R,6′R,7′R,8′E,11′S,12′R)-6-chloro-7′-hydroxy-11′,12′-dimethyl-7′-(1-methyl-1H-imidazol-2-yl)-3,4-dihydro-2H,15′H-spiro[naphthalene-1,22′-[20]oxa[13]thia[1,14]diazatetracyclo [14.7.2.0~3,6~.0~19,24~]pentacosa[8,16,18,24]tetraen]-15′-one 13′,13′-dioxide] | 9.51 |  | pIC50 [2, 8]: 6.40
10 | CO[C@@]1(CN2CCN3CCS(=O)(=O)C[C@@H]3C2)/C=C/C[C@H](C)[C@@H](C)S(=O)(=O)NC(=O)c2ccc3c(c2)N(C[C@@H]2CC[C@H]21)C[C@@]1(CCCc2cc(Cl)ccc21)CO3 (single isomer, unassigned) [Example 232] |  |  | pIC50 [1, 3]: 9.85; pIC50 [2, 5]: 6.70
11 | C[C@@H]1[C@@H](C)C/C=C/[C@](C)(OCC2CCOCC2)[C@@H]2CC[C@H]2CN2C[C@@]3(CCCc4cc(Cl)ccc43)COc3ccc(cc32)C(=O)NS1(=O)=O [Example 100477, (1S,3′R,6′R,7′S,8′E,11′S,12′R)-6-chloro-7′,11′,12′-trimethyl-7′-(tetrahydro-2H-pyran-4-ylmethoxy)-3,4-dihydro-2H,15′H-spiro[naphthalene-1,22′-[20]oxa[13]thia[1,14]diazatetracyclo [14.7.2.0~3,6~.0~19,24~]pentacosa[8,16,18,24]tetraen]-15′-one 13′,13′-dioxide] | 9.50 | 6.80 | 
12 | C[C@@H]1[C@@H](C)CCC[C@@](O)(CCN2CCCCC2)[C@@H]2CC[C@H]2CN2C[C@@]3(CCCc4cc(Cl)ccc43)COc3ccc(cc32)C(=O)NS1(=O)=O [Example 100091, (1S,3′R,6′R,7′R,11′S,12′R)-6-chloro-7′-hydroxy-11′,12′-dimethyl-7′-(2-(1-piperidinyl)ethyl)-3,4-dihydro-2H,15′H-spiro[naphthalene-1,22′-[20]oxa[13]thia[1,14]diazatetracyclo [14.7.2.0~3,6~.0~19,24~]pentacosa[16,18,24]trien]-15′-one 13′,13′-dioxide] | 8.92 | 5.87 | 
13 | C[C@@H]1[C@@H](C)C/C=C/[C@](O)(C#CCC2CCOCC2)[C@@H]2CC[C@H]2CN2C[C@@]3(CCCc4cc(Cl)ccc43)COc3ccc(cc32)C(=O)NS1(=O)=O [Example 100433, (1S,3′R,6′R,7′R,8′E,11′S,12′R)-6-chloro-7′-hydroxy-11′,12′-dimethyl-7′-(3-(tetrahydro-2H-pyran-4-yl)-1-propyn-1-yl)-3,4-dihydro-2H,15′H-spiro[naphthalene-1,22′-[20]oxa[13]thia[1,14]diazatetracyclo [14.7.2.0~3,6~.0~19,24~]pentacosa[8,16,18,24]tetraen]-15′-one 13′,13′-dioxide] | 10.59 | 6.53 | 
14 | CO[C@@]1(c2cncnc2)/C=C/C[C@H](C)[C@@H](C)S(=O)(=O)NC(=O)c2ccc3c(c2)N(C[C@@H]2CC[C@H]21)C[C@@]1(CCCc2cc(Cl)ccc21)CO3 [Example 100468, (1S,3′R,6′R,7′S,8′E,11′S,12′R)-6-chloro-7′-methoxy-11′,12′-dimethyl-7′-(5-pyrimidinyl)-3,4-dihydro-2H,15′H-spiro[naphthalene-1,22′-[20]oxa[13]thia[1,14]diazatetracyclo [14.7.2.0~3,6~.0~19,24~]pentacosa[8,16,18,24]tetraen]-15′-one 13′,13′-dioxide] | 9.41 | 6.03 | 
15 | Cc1ccnc(C[C@@]2(O)/C=C/C[C@H](C)[C@@H](C)S(=O)(=O)NC(=O)c3ccc4c(c3)N(C[C@@H]3CC[C@H]32)C[C@@]2(CCCc3cc(Cl)ccc32)CO4)c1 [Example 100532, (1S,3′R,6′R,7′R,8′E,11′S,12′R)-6-chloro-7′-hydroxy-11′,12′-dimethyl-7′-((4-methyl-2-pyridinyl)methyl)-3,4-dihydro-2H,15′H-spiro[naphthalene-1,22′-[20]oxa[13]thia[1,14]diazatetracyclo [14.7.2.0~3,6~.0~19,24~]pentacosa[8,16,18,24]tetraen]-15′-one 13′,13′-dioxide] | 10.28 | 5.06 | 
16 | COC[C@@H](C)N(C)C(=O)C[C@]1(OC)/C=C/C[C@H](C)[C@@H](C)S(=O)(=O)NC(=O)c2ccc3c(c2)N(C[C@@H]2CC[C@H]21)C[C@@]1(CCCc2cc(Cl)ccc21)CO3 [Example 100451, 2-((1S,3′R,6′R,7′S,8′E,11′S,12′R)-6-chloro-7′-methoxy-11′,12′-dimethyl-13′,13′-dioxido-15′-oxo-3,4-dihydro-2H-spiro[naphthalene-1,22′-[20]oxa[13]thia[1,14]diazatetracyclo [14.7.2.0~3,6~.0~19,24~]pentacosa[8,16,18,24]tetraen]-7′-yl)-N-((2R)-1-methoxy-2-propanyl)-N-methylacetamide] | 9.95 | 6.39 | 
